The source of these data is patent publication US20170165274A1, “COMPOSITION” (SHIELD TX (UK) LTD., priority 2014, published 2017).

For series [1], the system named is nasal mucosa. The experiment in a line: Contact with the nasal mucosa (irritation). Conditions: contact for 10 minute periods.
For series [2], the system named is grazed skin. The experiment in a line: Short term exposure on grazed skin in two volunteers (irritation). To be noted: 10^−4 M, short term (5 mins) exposure.
Series [3] relates to grazed skin. To be noted: human, in vivo.
Series [4] relates to nasal mucosa. Conditions: in vivo.
The nature of series [5]: Stability of iron hydroxypyrones in liquid as a function of pH. The class given is physicochemical. To be noted: acid pH. An excerpt:
There is another advantage of a liquid formulation of a ferric tri (hydroxypyrone) in that there is no need to have an acidified preparation for either efficacy or stability. […] This is a significant difference between ferric pyrones in solution and ferrous salts used in medicine.
Unlike the ferrous products a maximum stability of the liquid ferric pyrones and ferrous products containing maltol is achieved in the pH range 5.5-8. With this knowledge the formulations developed require ingredients suited to this constraint and also standardisation of colour and taste for patient acceptability. At higher concentrations of active a suspension formulation may be preferred. Furthermore the excipients must not reduce the excellent bio-availability of iron from iron pyrone formulations.

Like-named read-outs stand apart in the source and are kept apart here.

`O=S(=O)([O-])[O-].[Fe+2]` [FeS04, iron sulphate]: the “Irritancy to nasal mucosa” value in series [1] is on record as “neither iron tri-maltol or iron sulphate in contact with the nasal mucosa for 10 minute periods proved to be irritant”. The “Irritation of grazed skin” value in series [2] is reported as “did not induce irritation”.

`Cc1occc(=O)c1[O-].Cc1occc(=O)c1[O-].Cc1occc(=O)c1[O-].[Fe+3]` [Fe[Maltol]3, ferric trimaltol]: the “Irritation of grazed skin” value in series [3] was “did not induce irritation”. In addition, the “Irritancy to nasal mucosa” value in series [4] is on record as “neither iron tri-maltol or iron sulphate in contact with the nasal mucosa for 10 minute periods proved to be irritant”. In series [5], the “Stability behaviour in liquid” value is listed as “disproportionates at acid pH values”.
